According to US10238670B2, “9-aminomethyl minocycline compounds and methods of use thereof in urinary tract infection (UTI) treatment” (Paratek Pharmaceuticals, Inc., priority 2016, dated 2019):
Like-named read-outs stand apart in the source and are kept apart here.

Assay: Phase 1b study in female adults with cystitis, plasma PK
Type: in vivo, human
Conditions: plasma, plasma; for half-life / AUC(0-t) / Cmax / concentration at 5 day / Tmax: female, human
Procedure: According to the study design, a randomized (1:1:1), open-label, parallel designed Phase 1b study comparing 3 dosing regimens of Compound 1 (9-[(2,2-dimethyl-propyl amino)-methyl-minocycline) in the treatment of female adults with cystitis was conducted. About 31 female patients with uncomplicated urinary tract infection (cystitis) who met inclusion and exclusion criteria were enrolled at 2-4 U.S. treatment centers. All enrolled subjects participated in the study for approximately 5-6 weeks. Following Screening of up to 48 hrs, eligible subjects were randomly assigned to receive one of 3 dosing regimens of Compound 1 treatment as shown below. Subjects in all treatment groups were domiciled for a 5-day treatment period. Details of the study are further described below.
Subjects were randomized (1:1:1) to one of the following treatment arms: • 1. Group 1: IV load, p.o. daily (200 mg Compound 1 IV every 24 hours (q24h) for 1 dose, followed by 300 mg p.o. q24h for a total of 5 days); • 2. Group 2: p.o. load, p.o. daily (300 mg Compound 1 p.o. every 12 hours (q12h) for 2 doses, followed by 300 mg p.o. q24h for a total of 5 days); • 3. Group 3: high p.o. load, high p.o. daily (450 mg Compound 1 p.o. q12h for 2 doses, followed by 450 mg p.o. q24h for a total of 5 days).
Blood samples were collected and analyzed for Compound 1 concentration at the following times. Pre-dose blood PK evaluations were based on blood samples collected within 10 min of each start (e.g., t=0 h dose for Day 1, t=24 h dose for Day 2, etc.). • Day 1: Pre-dose, and 0.75, 1, 2, 3, 4, 6, 8 and 12 hours after the t=0 h dose (12 h sample before the t=12 h dose for Groups 2 and 3); • Day 2: prior to the t=24 h dose; • Day 3: prior to the t=48 h dose; • Day 4: prior to the t=72 h dose; • Day 5: Pre-dose, and 0.5, 1, 2, 3, 4, 6, 8 and 12 hours after the t=96 h dose • Day 6: at t=120 h (24 hours after the t=96 h dose on Day 5)
Following the final oral doses on Day 5 the Compound 1 plasma concentration-time data for Groups 1, 2 and 3 were used to determine Cmax, Tmax, AUC24h, AUCt. Trough plasma concentrations (Ctrough) following each dose (Days 2 to 6) were also determined.
Blood samples for PK are collected at the time points specified below. • Day 1: Predose, and 0.75, 1, 2, 3, 4, 6, 8 and 12 hours after the t=0 h dose (12 h sample before the t=12 h dose for Groups 2 and 3); • Day 2: prior to the t=24 h dose; • Day 3: prior to the t=48 h dose; • Day 4: prior to the t=72 h dose; • Day 5: Predose, and 0.5, 1, 2, 3, 4, 6, 8 and 12 hours after the t=96 h dose • Day 6: at t=120 h (24 hours after the t=96 h dose on Day 5)
Blood was collected either by fresh venipuncture or via a cannula used solely for that purpose. The dates and times for all doses of test article and PK sample collections were recorded. For intravenously administered doses of test article, the start and stop times for each infusion were recorded. Immediately after the sample was collected, the tube was gently inverted 5 to 8 times to thoroughly mix the anticoagulant and then placed upright in a cryoblock or test tube rack surrounded by ice until centrifugation. Samples were centrifuged at 1500×g for 10 minutes at approximately 4° C. within 30 minutes of collection. The resultant plasma was divided into 2 equal aliquots, placed in individual cryovials, and immediately frozen at −20° C. or colder within 1 hour of collection. The samples were kept frozen at −20° C. or colder pending shipment to the bioanalytical laboratory.
The Compound 1 plasma concentration data was listed and summarized by time point and treatment group. The following PK parameters were estimated from the Compound 1 plasma concentration-time data: […]

CN(C)c1cc(CNCC(C)(C)C)c(O)c2c1C[C@H]1C[C@H]3[C@H](N(C)C)C(O)=C(C(N)=O)C(=O)[C@@]3(O)C(O)=C1C2=O [Compound 1, 9-[(2,2-dimethyl-propylamino)-methyl]-minocycline]
half-life (oral, 300 mg, Day 5, IV_PO300, read-out: T½, Mean (converted)): 13.8 h
half-life (oral, 300 mg, Day 5, IV_PO300, read-out: T½, Median (converted)): 12.1 h
AUC(0-t) (oral, 300 mg, Day 5, PO300, read-out: AUC(0-24 hrs), Geo. Mean): 12400 ng·h/mL
AUC(0-t) (oral, 300 mg, Day 5, PO300, read-out: AUC(0-24 hrs), Mean): 13500 ng·h/mL
AUC(0-t) (oral, 300 mg, Day 5, PO300, read-out: AUC(0-24 hrs), Median): 13400 ng·h/mL
Cmax (oral, 300 mg, Day 5, PO300, read-out: Cmax, Geo. Mean): 999 ng/mL
Cmax (oral, 300 mg, Day 5, PO300, read-out: Cmax, Mean): 1120 ng/mL
Cmax (oral, 300 mg, Day 5, PO300, read-out: Cmax, Median): 1070 ng/mL
concentration at 5 day (oral, 300 mg, Day 5, PO300, read-out: Ctrough, Geo. Mean): 293 ng/mL
concentration at 5 day (oral, 300 mg, Day 5, PO300, read-out: Ctrough, Mean): 319 ng/mL
concentration at 5 day (oral, 300 mg, Day 5, PO300, read-out: Ctrough, Median): 315 ng/mL
Tmax (oral, 300 mg, Day 5, PO300, read-out: Tmax, Geo. Mean): 3.61 h
Tmax (oral, 300 mg, Day 5, PO300, read-out: Tmax, Mean): 3.9 h
Tmax (oral, 300 mg, Day 5, PO300, read-out: Tmax, Median): 3 h
AUC(0-t) (oral, 450 mg, Day 1, PO450, read-out: AUC(0-12 hrs), Geo. Mean): 6690 ng·h/mL
AUC(0-t) (oral, 450 mg, Day 1, PO450, read-out: AUC(0-12 hrs), Mean): 6850 ng·h/mL
AUC(0-t) (oral, 450 mg, Day 1, PO450, read-out: AUC(0-12 hrs), Median): 6650 ng·h/mL
Cmax (oral, 450 mg, Day 1, PO450, read-out: Cmax, Geo. Mean): 948 ng/mL
Cmax (oral, 450 mg, Day 1, PO450, read-out: Cmax, Mean): 987 ng/mL
Cmax (oral, 450 mg, Day 1, PO450, read-out: Cmax, Median): 947 ng/mL
Tmax (oral, 450 mg, Day 1, PO450, read-out: Tmax, Geo. Mean): 2.21 h
Tmax (oral, 450 mg, Day 1, PO450, read-out: Tmax, Median): 3 h
AUC(0-t) (oral, 450 mg, Day 5, PO450, read-out: AUC(0-24 hrs), Geo. Mean): 18700 ng·h/mL
AUC(0-t) (oral, 450 mg, Day 5, PO450, read-out: AUC(0-24 hrs), Mean): 19800 ng·h/mL
AUC(0-t) (oral, 450 mg, Day 5, PO450, read-out: AUC(0-24 hrs), Median): 21600 ng·h/mL
Cmax (oral, 450 mg, Day 5, PO450, read-out: Cmax, Geo. Mean): 1360 ng/mL
Cmax (oral, 450 mg, Day 5, PO450, read-out: Cmax, Mean): 1490 ng/mL
Cmax (oral, 450 mg, Day 5, PO450, read-out: Cmax, Median): 1640 ng/mL
concentration at 5 day (oral, 450 mg, Day 5, PO450, read-out: Ctrough, Geo. Mean): 462 ng/mL
concentration at 5 day (oral, 450 mg, Day 5, PO450, read-out: Ctrough, Mean): 484 ng/mL
concentration at 5 day (oral, 450 mg, Day 5, PO450, read-out: Ctrough, Median): 503 ng/mL
Tmax (oral, 450 mg, Day 5, PO450, read-out: Tmax, Geo. Mean): 2.64 h
Tmax (oral, 450 mg, Day 5, PO450, read-out: Tmax, Mean): 3.36 h
Tmax (oral, 450 mg, Day 5, PO450, read-out: Tmax, Median): 3.02 h
Tmax (po, 300 mg, Day 1, 300 mg po (n = 10), median, read-out: tmax): 3 h
Cmax (po, 300 mg, Day 5, 300 mg po (n = 10), mean, read-out: Cmax): 1120 ng/mL
Tmax (po, 300 mg, Day 5, 300 mg po (n = 10), median, read-out: tmax): 3 h
AUC(0-t) (po, 450 mg, Day 1, 450 mg po (n = 10), mean, read-out: AUC0-12): 6850 ng·h/mL
Tmax (po, 450 mg, Day 1, 450 mg po (n = 10), median, read-out: tmax): 3 h
Cmax (po, 450 mg, Day 1, 450 mg po (n = 10), mean, read-out: Cmax): 990 ng/mL
AUC(0-t) (po, 450 mg, Day 5, 450 mg po (n = 10), mean, read-out: AUC0-24): 19800 ng·h/mL
Cmax (po, 450 mg, Day 5, 450 mg po (n = 10), mean, read-out: Cmax): 1490 ng/mL
Tmax (po, 450 mg, Day 5, 450 mg po (n = 10), median, read-out: tmax): 3 h
Lambda Z, Geo. Mean (Day 1, IV_PO300): 0.0614 h⁻¹
Lambda Z, Mean (Day 1, IV_PO300): 0.0620 h⁻¹
Lambda Z, Median (Day 1, IV_PO300): 0.0605 h⁻¹
Tmax, Mean (Day 1, PO450): 2.492 h
Lambda Z, Geo. Mean (Day 5, IV_PO300): 0.0526 h⁻¹
Lambda Z, Mean (Day 5, IV_PO300): 0.0545 h⁻¹
Lambda Z, Median (Day 5, IV_PO300): 0.0574 h⁻¹
